Results as given in the NIST ThermoML archive (doi:10.1021/acs.jced.6b00357).
Several values for one entry are separate records, joined by “and”; a condition that tells them apart may be missing. Equal values may be shown once. ± gives the expanded uncertainty stated by the source.

Conditions: Liquid, Transpiration method

- vapor or sublimation pressure (298.15 K): 3.178 ± 0.13 kPa
SMILES: O [water]
- vapor or sublimation pressure (293.15 K): 2.319 ± 0.094 kPa and 2.32 ± 0.094 kPa and 2.315 ± 0.094 kPa
